Test results taken from patent publication US20110288154A1, “RNA Interference Mediated Inhibition of Epithelial Sodium Channel (ENaC) Gene Expression Using Short Interfering Nucleic Acid (siNA)” (MERCK & CO., INC., priority 2008, published 2011).
[invAb] = inverted abasic unit; m = 2'-O-methyl; r = 2'-OH (RNA); f = 2'-fluoro

Key:
[1] = test system: mSCNN1A mRNA; experiment: Screening of ENaCα siNAs in mouse NIH 3T3 cells (quantitative RT-PCR); type: cell-based; set-up: Percent Reduction of the mSCNN1A mRNA relative to a non-targeting control siNA / Mouse % KD (efficacy of ENaCα mRNA knockdown): concentration or dose not given beside the values; conditions: for Mean (mSCNN1A expression normalized to the level of m36B4) / Percent Reduction of the mSCNN1A mRNA relative to a non-targeting control siNA / Avg ENaCα Expression (mSCNN1A) / Avg 36B4 Expression: mouse NIH 3T3 cells, n = 3; for Mean (mSCNN1A expression normalized to the level of m36B4) / Percent Reduction of the mSCNN1A mRNA relative to a non-targeting control siNA / Avg 36B4 Expression: 24 hours post-transfection; for Avg ENaCα Expression (mSCNN1A): harvested 24 hours post-transfection; for Avg 36B4 Expression: housekeeping gene used for normalisation; for IC50 / Mouse % KD (efficacy of ENaCα mRNA knockdown): mouse cell line; for IC50: dose response, read-out: Mouse IC50 (potency of ENaCα mRNA knockdown); for Mouse % KD (efficacy of ENaCα mRNA knockdown): summary
Method: siNA constructs (Table 1b) may be tested for efficacy in reducing ENaC RNA expression in, for example, A549 human lung carcinoma cells. A549 (human; ATCC cat# CCL-185) cells were cultured at 37° C. in the presence of 5% CO2 and grown in Ham's F12K medium with 2 mM L-glutamine adjusted to contain 1.5 g/L sodium bicarbonate and supplemented with fetal bovine serum at a final concentration of 10% and 100 U/mL penicillin. The A549 cells were plated approximately 24 hours before transfection in 96-well plates at 7,500 cells/well, 100 μl/well. After 24 hours complexes containing siNA and Lipofectamine 2000 (Invitrogen) were created as follows: a solution of Lipofectamine 2000 in OPTI-MEM was prepared containing Lipofectamine 2000 at a final concentration of 14 μg/ml. In parallel, solutions of the siNAs were prepared in OPTI-MEM at a final concentration of 150 nM. After both solutions were incubated at 20° C. for 20 minutes an equal volume of the siNA solutions and the Lipofectamine 2000 solution were added together for each of the siNAs. The resultant solution has the siNAs at a final concentration of 75 nM and Lipofectamine 2000 at a final concentration of 7 μg/ml. This solution was incubated at 20° C. for 20 minutes. After incubation 50 μl of the solution were added to each of the wells (in triplicate). The final concentration of siNA in each well was 25 nM and the final concentration of Lipofectamine 2000 in each well was 2.33 μg/ml. The plates were incubated for 48 hours with no change of media before harvesting. Dose response curves were determined in a similar manner with each concentration being done in triplicate and maintaining a constant amount of Lipofectamine 2000 in each transfection.
(§1) A series of probes and primers were used to detect the various mRNA transcripts of the genes of ENaCa and GAPDH in mouse, rat, and human cell lines. The assays were performed on an ABI 7500 instrument, according to the manufacturer's instructions. Within each experiment, the baseline was set in the exponential phase of the amplification curve, and based on the intersection point of the baselines with the amplification curve, a Ct value was assigned by the instrument. This Ct value was then assigned a QTY value based on the Standard Curve. The standard curve in the various experiments herein used 1 ng to 300 ng of RNA extracted from the same cell line used for the experimental transfections.
(§2) All IC50 values were calculated from the data using GraphPad Prizm software, specifically a sigmoidal, variable slope curve for simple ligand binding. Also, unless otherwise indicated, all calculations of the efficacy and potency (e.g., % knockdown) of the siNAs were done relative to a non-targeting control siNA. If reported, P-values were computed using The Students t-test, including the Welch Correction for unequal variances.
(§3) In all of the calculations of the % knock-down of mRNA, the calculation was made relative to the normalized level of expression of the gene of interest in the samples treated with the non-targeting control (NTC) unless otherwise indicated. The gene of interest expression level was divided by the level of expression of GAPDH or 36B4 (depending on the species) in each sample. The three replicates for each condition in each experiment were averaged and the standard deviation of those samples was calculated. The following formula was then used to calculate the % of knock-down of the gene of interest:
(§4) The ENaCα siNAs were designed and synthesized as described previously. The siNAs were screened in three cell lines. Human A549 cells, mouse NIH 3T3 and Rat H-4-II-E cells. The data from the screen of ENaCa siNAs in all three species is shown in Tables 3a, 3b, 4a, 4b, 5a, and 5b and a summary of the data for certain siNA molecules is presented in Table 6. Each screen was performed at 24 hrs. The decision to use this time point was based upon the degree of knockdown of the mRNA seen at that time point.

[2] = test system: rSCNN1A (r ENaCα) mRNA; experiment: Screening of ENaCα siNAs in Rat H-4-II-E cells (quantitative RT-PCR); type: cell-based; set-up: Percent Reduction of the r ENaCα mRNA relative to a non-targeting control siNA (NTCs) / Rat % KD (efficacy of ENaCα mRNA knockdown): concentration or dose not given beside the values; conditions: for Mean (rSCNN1A expression normalized to the level of rGAPDH) / Percent Reduction of the r ENaCα mRNA relative to a non-targeting control siNA (NTCs) / Avg ENaCα Expression (rSCNN1A) / Avg GAPDH Expression (rGAPDH): Rat H-4-II-E cells, n = 3; for Mean (rSCNN1A expression normalized to the level of rGAPDH) / Percent Reduction of the r ENaCα mRNA relative to a non-targeting control siNA (NTCs) / Avg GAPDH Expression (rGAPDH): 24 hours post-transfection; for Avg ENaCα Expression (rSCNN1A): harvested 24 hours post-transfection; for Avg GAPDH Expression (rGAPDH): housekeeping gene used for normalisation; for IC50 / Rat % KD (efficacy of ENaCα mRNA knockdown): rat cell line; for IC50: dose response, read-out: Rat IC50 (potency of ENaCα mRNA knockdown); for Rat % KD (efficacy of ENaCα mRNA knockdown): summary
Method: as §1, §2, §3, §4

Row | Substance | Mean (mSCNN1A expression normalized to the level of m36B4) [1] | Percent Reduction of the mSCNN1A mRNA relative to a non-targeting control siNA [1] [%] | Avg ENaCα Expression (mSCNN1A) [1] | Avg 36B4 Expression [1] | Mean (rSCNN1A expression normalized to the level of rGAPDH) [2] | Percent Reduction of the r ENaCα mRNA relative to a non-targeting control siNA (NTCs) [2] [%] | Avg ENaCα Expression (rSCNN1A) [2] | Avg GAPDH Expression (rGAPDH) [2] | IC50 [1] [nM] | Mouse % KD (efficacy of ENaCα mRNA knockdown) [1] [%] | IC50 [2] [nM] | Rat % KD (efficacy of ENaCα mRNA knockdown) [2] [%]
1 | B GGcuGuGccuAcAucuucu TTB / AGAAGAuGucGGcAcAGccUU (sense GGCUGUGCCUACAUCUUCUTT; antisense AGAAGAUGUCGGCACAGCCUU; siRNA; sense: DNA at AGT, 2'-fluoro at CU, [invAb] at 5' end, 3' end, backbone not given here; antisense: sugars from the 5' end rrrmmmfmffmmfmfmmffmm, backbone not given here) [Site 1387] | 0.06 | 59.1 | 1.37 | 24.37 | 0.71 | 23.3 | 24.12 | 34.37 | – | – | – | –
2 | B GcAuGAAGAcGGccuucuG TTB / CAGAAGGccGuCuucAuGcUU (chain 1 GCAUGAAGACGGCCUUCUGTT; chain 2 CAGAAGGCCGUCUUCAUGCUU; siRNA; chain 1: DNA at AGT, 2'-fluoro at CU, [invAb] at 5' end, 3' end, backbone not given here; chain 2: sugars from the 5' end rrrmmmmffmfmfffmfmfmm, backbone not given here) [Site 341] | 0.23 | 3.9 | 3.17 | 13.56 | 1.05 | 18.4 | 19.10 | 18.30 | – | – | – | –
3 | B GccAGuGGAGccuGuGGuu TTB / AACcAcAGGcuccAcuGGcUU (sense GCCAGUGGAGCCUGUGGUUTT; antisense AACCACAGGCUCCACUGGCUU; siRNA; sense: DNA at AGT, 2'-fluoro at CU, [invAb] at 5' end, 3' end, backbone not given here; antisense: sugars from the 5' end rrrfmfmmmffffmffmmfmm, backbone not given here) [Site 1757] | 0.11 | 22.2 | 2.58 | 24.24 | 0.72 | 21.5 | 29.36 | 40.49 | – | – | – | –
4 | B GccAuccGccuGGuGuGcu TTB / AGCAcAccAGGcGGAuGGcUU (sense GCCAUCCGCCUGGUGUGCUTT; antisense AGCACACCAGGCGGAUGGCUU; siRNA; sense: DNA at AGT, 2'-fluoro at CU, [invAb] at 5' end, 3' end, backbone not given here; antisense: sugars from the 5' end rrrmfmffmmmfmmrfmmfmm, backbone not given here) [Site 310] | 0.20 | 16.6 | 3.19 | 16.02 | 0.92 | 28.3 | 18.39 | 20.12 | – | – | – | –
5 | B GcuGuGccuAcAucuucuA TTB / UAGAAGAuGuAGGcAcAGcUU (sense GCUGUGCCUACAUCUUCUATT; antisense UAGAAGAUGUAGGCACAGCUU; siRNA; B caps on sense ends, letter-case modifications not given here, further chemistry not given here) [Site 1388] | 0.04 | 73.4 | 0.90 | 24.18 | 0.32 | 65.6 | 11.65 | 37.10 | 1.9 | 73 | 0.9 | 65
6 | B GuGGcuGuGccuAcAucuu TTB / AAGAuGuAGGcAcAGccAcUU (sense GUGGCUGUGCCUACAUCUUTT; antisense AAGAUGUAGGCACAGCCACUU; siRNA; sense: DNA at AGT, 2'-fluoro at CU, [invAb] at 5' end, 3' end, backbone not given here; antisense: sugars from the 5' end rrrmfmfmmmfmfmmffmfmm, backbone not given here) [Site 1385] | 0.13 | 4.4 | 2.95 | 22.75 | 0.58 | 36.7 | 19.09 | 30.04 | – | – | – | –
7 | B GuGuGGcuGuGccuAcAuc TTB / GAUGuAGGcAcAGccAcAcUU (sense GUGUGGCUGUGCCUACAUCTT; antisense GAUGUAGGCACAGCCACACUU; siRNA; B caps on sense ends, letter-case modifications not given here, further chemistry not given here) [Site 1383] | 0.04 | 82.4 | 0.91 | 14.23 | 0.63 | 50.7 | 15.01 | 23.52 | 3 | 82 | 1 | 50
8 | B GuccAAccuGGGcAGccAG TTB / CUGGcuGcccAGGuuGGAcUU (sense GUCCAACCUGGGCAGCCAGTT; antisense CUGGCUGCCCAGGUUGGACUU; siRNA; sense: DNA at AGT, 2'-fluoro at CU, [invAb] at 5' end, 3' end, backbone not given here; antisense: sugars from the 5' end rmmmffmfffmmmffmmmfmm, backbone not given here) [Site 1743] | 0.13 | 6.7 | 2.87 | 22.47 | 0.52 | 43.9 | 22.13 | 42.82 | – | – | – | –
